The text below walks through data of patent publication US20250177396A1, “POLO-LIKE KINASE 4 (PLK4) INHIBITORS, PHARMACEUTICAL COMPOSITIONS, METHODS OF PREPARATION AND USES THEREOF” (Repare Therapeutics Inc., priority 2022, published 2025).

For the assay, the target named is T1, PLK4 (Homo sapiens, UniProt O00444).
T1 construct: expressed in transfected cells; host or cells: HEK293 T cells (ATCC CRL-3216)
T1 sequence (O00444 1-970): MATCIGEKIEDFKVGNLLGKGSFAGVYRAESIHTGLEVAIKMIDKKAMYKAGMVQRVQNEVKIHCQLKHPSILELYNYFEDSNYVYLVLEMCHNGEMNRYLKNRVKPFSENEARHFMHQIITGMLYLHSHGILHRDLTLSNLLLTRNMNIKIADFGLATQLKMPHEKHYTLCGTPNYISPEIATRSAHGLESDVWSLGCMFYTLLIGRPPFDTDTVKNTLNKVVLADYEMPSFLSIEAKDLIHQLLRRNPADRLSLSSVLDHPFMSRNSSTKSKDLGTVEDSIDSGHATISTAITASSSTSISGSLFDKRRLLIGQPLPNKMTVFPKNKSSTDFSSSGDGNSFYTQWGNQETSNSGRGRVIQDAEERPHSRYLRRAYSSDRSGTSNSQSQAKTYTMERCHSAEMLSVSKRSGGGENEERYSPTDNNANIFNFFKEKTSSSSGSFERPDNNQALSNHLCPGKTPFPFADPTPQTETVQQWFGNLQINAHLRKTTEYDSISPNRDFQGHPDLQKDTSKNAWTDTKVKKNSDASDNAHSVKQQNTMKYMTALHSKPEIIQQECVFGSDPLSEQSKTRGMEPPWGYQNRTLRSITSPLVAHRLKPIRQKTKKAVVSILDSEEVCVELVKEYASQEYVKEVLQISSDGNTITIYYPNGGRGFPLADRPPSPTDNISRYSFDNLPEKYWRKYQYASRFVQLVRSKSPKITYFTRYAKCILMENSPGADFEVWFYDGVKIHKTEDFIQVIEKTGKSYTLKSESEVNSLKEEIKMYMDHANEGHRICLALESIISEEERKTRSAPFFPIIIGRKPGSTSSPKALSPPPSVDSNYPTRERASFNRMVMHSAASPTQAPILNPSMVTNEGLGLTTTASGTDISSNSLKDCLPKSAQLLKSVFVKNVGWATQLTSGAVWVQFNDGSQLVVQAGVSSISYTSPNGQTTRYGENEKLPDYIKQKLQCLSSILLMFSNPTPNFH
In words: PLK4 NanoBRET target engagement assay. Particulars: HEK293 T cells transfected with PLK4 NanoLuc fusion vector; K-5 tracer; 2 hrs incubation. The class given is binding. Here is the method: To determine the affinity of Compounds described herein in the PLK4 NanoBRET target engagement assay, HEK293 T cells (ATCC Product Number CRL-3216) are first transfected with the PLK4 NanoLuc fusion vector DNA and Transfection carrier DNA using the Fugene HD Transfection reagent in Opti-MEM No Phenol Red buffer. After an overnight incubation in a 37° C./5% CO2 incubator, the transfected HEK293 T cells are trypsinized, counted, and resuspended in Opti-MEM No Phenol Red buffer at a concentration of 200000 cells/mL. White 96-well plates are then plated with 85 μL of cells (17000 cells/well) to which 5 μL of the 20×K-5 tracer solution diluted in tracer dilution buffer is added. Finally, 10 μL of the 10× compounds are added and the plates and then incubated in a 37° C./5% CO2 incubator for 2 hrs. After the incubation, a 50 uL 3× solution of the substrate/inhibitor mix is added to the cells. The plate is then transferred in the Envision plate reader where the Acceptor emission (610 nm) and the Donor emission (450 nm) are measured.
The IC50 of compounds is determined as follows: • 1. The ratio between the Acceptor emission (610 nm)/Donor emission (450 nm) is calculated. • 2. This ratio is then multiplied by 1000 to obtain the mBRET units (multiplying by 1000 is an arbitrary step that simply makes the data easier to interpret; it has no impact on the data set itself) • 3. The mBRET units are then used in Scigilian Analyze software (https://analyze.scigilian.io) to determine the IC50 value using a 4-parameter fit analysis.

Molecules are shown by their SMILES.

The molecule `COc1c(Nc2cc(C)[nH]n2)nc(Nc2ccc(S(C)(=O)=O)cc2F)nc1-c1cnn(C)c1` [Compound 1, N^2-(2-fluoro-4-(methylsulfonyl)phenyl)-5-methoxy-N^4-(5-methyl-1H-pyrazol-3-yl)-6-(1-methyl-1H-pyrazol-4-yl)pyrimidine-2,4-diamine] showed an IC50 of 220 nM.

On to `COc1c(Nc2cc(C)[nH]n2)nc(N(C)c2ccc(S(C)(=O)=O)cc2F)nc1-c1cnn(C)c1` [Compound 2, N^2-(2-fluoro-4-(methylsulfonyl)phenyl)-5-methoxy-N^2-methyl-N^4-(5-methyl-1H-pyrazol-3-yl)-6-(1-methyl-1H-pyrazol-4-yl)pyrimidine-2,4-diamine], for which the IC50 amounted to 53 nM.

For the molecule `CCN(c1nc(Nc2cc(C)[nH]n2)c(OC)c(-c2cnn(C)c2)n1)c1ccc(S(C)(=O)=O)cc1F` [Compound 3, N^2-ethyl-N^2-(2-fluoro-4-(methylsulfonyl)phenyl)-5-methoxy-N^4-(5-methyl-1H-pyrazol-3-yl)-6-(1-methyl-1H-pyrazol-4-yl)pyrimidine-2,4-diamine], the 50% inhibitory concentration (IC50) was 68 nM.

`COc1c(Nc2cc(C)[nH]n2)nc(N(Cc2ccc(F)cc2)c2ccc(S(C)(=O)=O)cc2F)nc1-c1cnn(C)c1` [Compound 4, N^2-(2-fluoro-4-(methylsulfonyl)phenyl)-N^2-(4-fluorobenzyl)-5-methoxy-N^4-(5-methyl-1H-pyrazol-3-yl)-6-(1-methyl-1H-pyrazol-4-yl)pyrimidine-2,4-diamine] gave a half-maximal inhibitory concentration (IC50) of 720 nM.

On to `COc1c(Nc2cc(C)[nH]n2)nc(N2CCc3cc(S(C)(=O)=O)ccc32)nc1-c1cnn(C)c1` [Compound 5, 5-methoxy-N-(5-methyl-1H-pyrazol-3-yl)-6-(1-methyl-1H-pyrazol-4-yl)-2-(5-(methylsulfonyl)indolin-1-yl)pyrimidin-4-amine], for which it took 1100 nM to reach half-maximal inhibition (IC50).

The molecule `COc1c(Nc2cc(C)[nH]n2)nc(N(C)c2ccc(S(C)(=O)=O)cc2F)nc1-c1ccn(C)n1` [Compound 6, N^2-(2-fluoro-4-(methylsulfonyl)phenyl)-5-methoxy-N^2-methyl-6-(1-methyl-1H-pyrazol-3-yl)-N^4-(5-methyl-1H-pyrazol-3-yl)pyrimidine-2,4-diamine] yielded an IC50 of 49 nM.

The molecule `COc1c(Nc2cc(C)[nH]n2)nc(N(C)c2ccc(S(=O)(=O)C3CC3)cc2F)nc1-c1cnn(C)c1` [Compound 7, N^2-(4-(cyclopropylsulfonyl)-2-fluorophenyl)-5-methoxy-N^2-methyl-N^4-(5-methyl-1H-pyrazol-3-yl)-6-(1-methyl-1H-pyrazol-4-yl)pyrimidine-2,4-diamine] returned an IC50 of 65 nM.

`COc1c(Nc2cc(C)[nH]n2)nc(N(C)c2c(F)cc(S(C)(=O)=O)cc2F)nc1-c1cnn(C)c1` [Compound 8, N^2-(2,6-difluoro-4-(methylsulfonyl)phenyl)-5-methoxy-N^2-methyl-N^4-(5-methyl-1H-pyrazol-3-yl)-6-(1-methyl-1H-pyrazol-4-yl)pyrimidine-2,4-diamine] yielded an IC50 of 6 nM.

As to `COc1c(Nc2cc(C)[nH]n2)nc(Oc2ccc(S(C)(=O)=O)cc2F)nc1-c1cnn(C)c1` [Compound 9, 2-(2-fluoro-4-(methylsulfonyl)phenoxy)-5-methoxy-N-(5-methyl-1H-pyrazol-3-yl)-6-(1-methyl-1H-pyrazol-4-yl)pyrimidin-4-amine], the IC50 was found to be 400 nM.

For the molecule `Cc1cc(Nc2nc(N(C)c3ccc(S(C)(=O)=O)cc3F)nc(-c3ccn(C)n3)c2C2CC2)n[nH]1` [Compound 12, 5-cyclopropyl-N^2-(2-fluoro-4-(methylsulfonyl)phenyl)-N^2-methyl-6-(1-methyl-1H-pyrazol-3-yl)-N^4-(5-methyl-1H-pyrazol-3-yl)pyrimidine-2,4-diamine], the IC50 was 16 nM.

For `Cc1cc(Nc2nc(N(C)c3c(F)cc(S(C)(=O)=O)cc3F)nc(-c3ccn(C)n3)c2C2CC2)n[nH]1` [Compound 13, 5-cyclopropyl-N^2-(2,6-difluoro-4-(methylsulfonyl)phenyl)-N^2-methyl-6-(1-methyl-1H-pyrazol-3-yl)-N^4-(5-methyl-1H-pyrazol-3-yl)pyrimidine-2,4-diamine], the half-inhibitory concentration (IC50) came out at 5 nM.

The molecule `Cc1cc(Nc2nc(Nc3ccc(S(C)(=O)=O)cc3F)nc(-c3cn(C)cn3)c2C2CC2)n[nH]1` [Compound 16, 5-cyclopropyl-N^2-(2-fluoro-4-(methylsulfonyl)phenyl)-6-(1-methyl-1H-imidazol-4-yl)-N^4-(5-methyl-1H-pyrazol-3-yl)pyrimidine-2,4-diamine] yielded a 50% inhibitory concentration (IC50) of 200 nM.

Take `Cc1cc(Nc2nc(N(C)c3ccc(S(C)(=O)=O)cc3F)nc(-c3cn(C)cn3)c2C2CC2)n[nH]1` [Compound 17, 5-cyclopropyl-N^2-(2-fluoro-4-(methylsulfonyl)phenyl)-N^2-methyl-6-(1-methyl-1H-imidazol-4-yl)-N^4-(5-methyl-1H-pyrazol-3-yl)pyrimidine-2,4-diamine]: the midpoint of inhibition, the IC50, lay at 20 nM.

`COc1c(-c2cnn(C)c2)cc(N(C)c2ccc(S(C)(=O)=O)cc2F)nc1Nc1cc(C)[nH]n1` [Compound 19, N^6-(2-fluoro-4-(methylsulfonyl)phenyl)-3-methoxy-N^6-methyl-N^2-(5-methyl-1H-pyrazol-3-yl)-4-(1-methyl-1H-pyrazol-4-yl)pyridine-2,6-diamine] displayed an IC50 of 56 nM.

`Cc1cc(Nc2nc(N(C)c3ccc(S(C)(=O)=O)cc3F)cc(-c3cnn(C)c3)c2C2CC2)n[nH]1` [Compound 20, 3-cyclopropyl-N^6-(2-fluoro-4-(methylsulfonyl)phenyl)-N^6-methyl-N^2-(5-methyl-1H-pyrazol-3-yl)-4-(1-methyl-1H-pyrazol-4-yl)pyridine-2,6-diamine]: half-maximal inhibition (IC50) was put at 69 nM.

In the case of `COc1c(-c2cnn(C)c2)cc(Sc2ccc(S(C)(=O)=O)cc2F)nc1Nc1cc(C)[nH]n1` [Compound 21, 6-((2-fluoro-4-(methylsulfonyl)phenyl)thio)-3-methoxy-N-(5-methyl-1H-pyrazol-3-yl)-4-(1-methyl-1H-pyrazol-4-yl)pyridin-2-amine], the IC50 turned out to be 53 nM.

`COc1c(Nc2cc(C)[nH]n2)nc(Sc2ccc(S(C)(=O)=O)cc2F)c(C)c1-c1cnn(C)c1` [Compound 22, 6-((2-fluoro-4-(methylsulfonyl)phenyl)thio)-3-methoxy-5-methyl-N-(5-methyl-1H-pyrazol-3-yl)-4-(1-methyl-1H-pyrazol-4-yl)pyridin-2-amine] gave an IC50 of 96 nM.

In the case of `COc1c(Nc2cc(C)[nH]n2)nc(Nc2ccc(S(C)(=O)=O)cc2F)c(C)c1-c1cnn(C)c1` [Compound 23, N^2-(2-fluoro-4-(methylsulfonyl)phenyl)-5-methoxy-3-methyl-N^6-(5-methyl-1H-pyrazol-3-yl)-4-(1-methyl-1H-pyrazol-4-yl)pyridine-2,6-diamine], the half-maximal inhibitory concentration (IC50) was 210 nM.

`COc1c(Nc2cc(C)[nH]n2)nc(N(C)c2ccc(S(C)(=O)=O)cc2F)c(F)c1-c1cnn(C)c1` [Compound 24, 3-fluoro-N^2-(2-fluoro-4-(methylsulfonyl)phenyl)-5-methoxy-N^2-methyl-N^6-(5-methyl-1H-pyrazol-3-yl)-4-(1-methyl-1H-pyrazol-4-yl)pyridine-2,6-diamine] showed an IC50 of 1100 nM.

`[2H]C([2H])([2H])N(C([2H])([2H])[2H])S(=O)(=O)c1ccc(N(C)c2nc(Nc3cc(C)[nH]n3)c(C3CC3)c(-c3cnn(C)c3)n2)c(F)c1` [Compound 26] came in with an IC50 of 5 nM.

The molecule `COc1c(Nc2cc(C)[nH]n2)nc(Oc2c(F)cc(Br)cc2F)nc1-c1cnn(C)c1` [Compound 29] returned an IC50 of 1300 nM.

Molecule `COc1c(Nc2cc(C)[nH]n2)nc(Oc2ccc(N(C)S(C)(=O)=O)cc2)nc1-c1cnn(C)c1` [Compound 31] displayed an IC50 of 620 nM.
